Reference: patent US20240156800A1, “EP300 DEGRADER AND USES THEREOF IN NEUROBLASTOMA” (DANA-FARBER CANCER INSTITUTE, INC., priority 2021, published 2024)
Entries after “also recorded” stand apart in the source; their conditions may differ.

Key:
CBP = molecular target: T1, CBP (Homo sapiens, UniProt Q92793); test: Western blotting of CBP in treated NB cells; assay type: cell-based
T1 construct: Cells growing in culture were lysed for whole cell lysates; endogenous in cells; host or cells: Kelly, NGP, SIMA, BE2C neuroblastoma cells; Kelly xenografts in NSG mice
Procedure: Cells growing in culture were lysed for whole cell lysates as described in Durbin et al. Nat. Genet. 50:1240-1246 (2018) and Wang et al. Nat. Commun. 10:5622 (2019). Nuclear lysates were prepared using the NE-PER® nuclear lysate kit (Thermo Scientific™) according to the manufacturer's protocol. Chromatin lysates were prepared with the total histone extraction kit (Epigentek). Briefly, equivalent amounts of protein were resolved by western blotting using 4-12% Bis-Tris NuPAGE™ gels (Thermo-Fisher Scientific) prior to transfer, and immunoblotting using primary antibodies to: MYCN (1:1000, Cell Signaling Technology®), H3K27ac (1:1000, Abcam), total H3 (1:1000, Cell Signaling Technology®), EP300 (1:1000, Abcam), CBP (1:500, Cell Signaling Technology®), Cas9 (1:1000, Cell Signaling Technology®), cleaved-PARP1 (1:1000, Cell Signaling Technology), cleaved Caspase-3 (1:1000, Cell Signaling Technology®), β-actin (1:1000, Cell Signaling Technology®), GATA3 (1:1000, EMD Millipore™), TFAP2β (1:1000, Cell Signaling Technology®), Vinculin (1:1000, EMD Millipore™), CRBN (1:1000, Cell Signaling Technology®), HAND2 (1:1000, Santa Cruz Biotechnology). Secondary antibodies were horseradish peroxidase (HRP)-conjugated anti-rabbit or anti-mouse (1:5000, Santa Cruz Biotechnology), incubated prior to exposure to enhanced chemiluminescence reagents (GE, Amersham). For immunoprecipitation, equal amounts of protein were diluted in buffer C as described in Mansour et al. Science 346:1373-1377 (2014) and incubated with antibodies covalently conjugated to Dynabeads™ M-270 beads (Thermo-Fisher Scientific) overnight according to the manufacturer's directions. Antibodies used included: H3K27ac, EP300 (Abcam), CBP, TFAP2β (Cell Signaling Technology®), rabbit immunoglobulin G (IgG) (Santa Cruz Biotechnology®). Immunoprecipitated protein was isolated as per the manufacturer's directions and subjected to western blotting, as described above, or mass spectrometry.

Kelly NB cell xenografts = test: Kelly NB cell subcutaneous xenografts in NSG mice; assay type: in vivo; settings: 40 mg/Kg IP once or twice daily
Procedure: For tumor studies, eight-week-old female NSG™ mice (Jackson Laboratories) were subcutaneously implanted with 2.5×10^6 Kelly cells in 50% matrigel/PBS. Mice were assigned to three groups: vehicle (n=11), JQAD1 (40 mg/kg/day) (n=12) or JQAD1 (40 mg/kg, twice daily) (n=12) by IP injection. Treatment with small-molecule inhibitors was initiated once tumors engrafted and reached 100-150 mm^3. Mice were treated for 21 days and then followed for survival. Tumors were measured by calipers, and mice were weighed every three days. Animals were euthanized according to institutional guidelines when tumors reached […] in length or width, or if animals became moribund. Tumor sizes were compared at each time point by two-way ANOVA with post-hoc Tukey tests. Tumor growth curve kinetics were analyzed by both logistic regression and mixed-effects two-way ANOVA with post-hoc Tukey tests to determine whether growth kinetics differed between treatment groups.
Separately, eight animals were xenografted as described above, and treated with vehicle (n=4) or JQAD1 (n=4) at 40 mg/kg IP daily for 14 days. These animals were sacrificed at day 14, following which tumor was extracted, and divided for immunohistochemical analysis or analysis of RNA expression by RNA sequencing (RNA-seq).

BE2C-CRBN cells = test: Cell-Titer Glo growth of BE2C cells overexpressing CRBN or zsGreen; assay type: cell-based, human; settings: 10 μM, 6 days
Procedure: Cells were infected with lentiviruses encoding sgRNAs or treated with compounds as described. Colony assays were performed by replating cells at 500 cells per well in 6-well dishes and grown in regular growth media for 10 d before 100% methanol fixation, 0.05% crystal violet staining, and quantitation. Experiments were completed in triplicate; data shown are the average of three independent experiments. Cell Titer-Glo® assay was performed as per the manufacturer's instructions (Promega®). Briefly, 1000 cells/well were plated into 96-well plates and treated with a range of compound dosing. Cell viability was measured at the noted time points based on luminescence by the Cell Titer-Glo® assay (Promega®) and read on an Envision 2104 (PerkinElmer®, USA) according to the manufacturer's protocol.
sgRNAs targeting individual genes were subcloned by standard methodologies within pLKO.5-EFGP. Kelly, SIMA, BE2C, and NGP cells were infected with lenticas9 followed by blasticidin selection. Stable expression of cas9 was established by western blotting of protein lysates using cas9 antibody (Cell Signaling Technology®). Following infection of pLKO.5-EGFP-sgRNA lentivirus, cells were cultured for the identified times prior to evaluation. BE2C cells were infected with pLC-zsgreen or pLC-CRBN lentiviruses and selected using 500 μg/mL hygromycin (Invitrogen™)

T1 sequence (Q92793 whole entry): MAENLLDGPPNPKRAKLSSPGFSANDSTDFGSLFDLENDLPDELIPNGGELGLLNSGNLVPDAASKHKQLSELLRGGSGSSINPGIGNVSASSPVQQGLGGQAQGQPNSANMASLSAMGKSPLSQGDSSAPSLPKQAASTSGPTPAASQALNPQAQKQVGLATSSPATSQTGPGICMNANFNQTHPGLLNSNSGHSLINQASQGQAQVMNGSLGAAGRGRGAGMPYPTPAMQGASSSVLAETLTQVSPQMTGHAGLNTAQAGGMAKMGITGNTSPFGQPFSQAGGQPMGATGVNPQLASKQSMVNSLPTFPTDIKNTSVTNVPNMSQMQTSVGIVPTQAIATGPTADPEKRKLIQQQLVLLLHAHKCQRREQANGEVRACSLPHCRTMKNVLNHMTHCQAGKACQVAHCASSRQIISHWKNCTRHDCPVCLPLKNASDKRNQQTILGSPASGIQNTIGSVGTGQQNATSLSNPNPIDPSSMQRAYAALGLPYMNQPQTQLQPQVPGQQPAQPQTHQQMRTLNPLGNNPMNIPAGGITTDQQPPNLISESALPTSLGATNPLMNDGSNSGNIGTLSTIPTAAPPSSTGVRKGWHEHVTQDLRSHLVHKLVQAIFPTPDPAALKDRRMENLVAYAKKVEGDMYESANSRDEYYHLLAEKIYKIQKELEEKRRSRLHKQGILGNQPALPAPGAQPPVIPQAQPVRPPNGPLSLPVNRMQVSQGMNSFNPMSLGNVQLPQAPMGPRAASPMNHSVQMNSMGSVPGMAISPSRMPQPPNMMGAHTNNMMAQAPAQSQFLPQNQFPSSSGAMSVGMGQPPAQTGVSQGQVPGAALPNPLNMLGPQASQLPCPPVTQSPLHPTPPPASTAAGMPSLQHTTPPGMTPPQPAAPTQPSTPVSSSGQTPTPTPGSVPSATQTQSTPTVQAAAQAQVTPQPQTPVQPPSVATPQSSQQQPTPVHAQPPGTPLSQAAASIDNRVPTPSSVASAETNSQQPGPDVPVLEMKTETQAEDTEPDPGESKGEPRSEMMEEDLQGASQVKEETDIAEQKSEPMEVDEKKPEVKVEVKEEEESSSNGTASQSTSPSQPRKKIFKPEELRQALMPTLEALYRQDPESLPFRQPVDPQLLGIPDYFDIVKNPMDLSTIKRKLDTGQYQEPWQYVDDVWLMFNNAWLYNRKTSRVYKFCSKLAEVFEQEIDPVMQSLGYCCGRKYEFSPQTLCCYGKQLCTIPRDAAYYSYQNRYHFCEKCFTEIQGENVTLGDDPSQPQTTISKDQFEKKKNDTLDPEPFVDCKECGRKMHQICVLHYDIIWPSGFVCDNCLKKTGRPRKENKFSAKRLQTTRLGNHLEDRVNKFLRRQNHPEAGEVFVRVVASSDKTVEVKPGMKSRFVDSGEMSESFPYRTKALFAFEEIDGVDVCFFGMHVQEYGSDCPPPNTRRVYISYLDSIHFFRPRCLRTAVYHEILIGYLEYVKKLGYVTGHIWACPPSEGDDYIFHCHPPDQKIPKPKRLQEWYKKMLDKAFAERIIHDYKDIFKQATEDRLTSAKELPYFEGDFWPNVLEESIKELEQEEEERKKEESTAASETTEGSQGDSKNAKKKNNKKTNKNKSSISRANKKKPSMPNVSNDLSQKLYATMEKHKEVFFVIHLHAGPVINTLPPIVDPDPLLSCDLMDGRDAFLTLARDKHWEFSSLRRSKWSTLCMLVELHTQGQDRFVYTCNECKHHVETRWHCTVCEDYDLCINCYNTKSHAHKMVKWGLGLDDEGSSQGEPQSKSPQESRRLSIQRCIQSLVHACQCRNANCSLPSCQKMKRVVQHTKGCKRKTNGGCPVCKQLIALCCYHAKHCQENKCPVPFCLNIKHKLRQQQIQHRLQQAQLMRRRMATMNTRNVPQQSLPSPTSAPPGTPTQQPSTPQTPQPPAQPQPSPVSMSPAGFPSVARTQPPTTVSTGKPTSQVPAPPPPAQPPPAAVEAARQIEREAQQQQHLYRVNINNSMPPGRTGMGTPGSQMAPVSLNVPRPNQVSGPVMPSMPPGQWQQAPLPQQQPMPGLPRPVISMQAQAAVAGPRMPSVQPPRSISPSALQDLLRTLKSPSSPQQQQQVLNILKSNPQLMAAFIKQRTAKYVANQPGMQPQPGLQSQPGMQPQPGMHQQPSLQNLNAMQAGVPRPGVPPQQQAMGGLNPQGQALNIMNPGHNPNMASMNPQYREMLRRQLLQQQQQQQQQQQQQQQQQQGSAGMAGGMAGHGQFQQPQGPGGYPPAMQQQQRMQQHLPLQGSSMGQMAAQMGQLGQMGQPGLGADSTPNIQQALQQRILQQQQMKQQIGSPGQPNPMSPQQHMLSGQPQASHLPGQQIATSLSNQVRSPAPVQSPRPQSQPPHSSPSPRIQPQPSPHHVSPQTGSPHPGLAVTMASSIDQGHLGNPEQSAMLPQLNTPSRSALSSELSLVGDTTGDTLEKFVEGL

## C[C@H](N(Cc1ccc(F)cc1)C(=O)CN1C(=O)O[C@@]2(CCc3cc(NC(=O)CCCCCCCCCCCNc4ccc5c(c4)C(=O)N(C4CCC(=O)NC4=O)C5=O)ccc32)C1=O)C(F)(F)F (stereo partly drawn) [JQAD1, 12-((2-(2,6-dioxopiperidin-3-yl)-1,3-dioxoisoindolin-5-yl)amino)-N-((R)-3′-(2-((4-fluorobenzyl)((S)-1,1,1-trifluoropropan-2-yl)amino)-2-oxoethyl)-2′,4′-dioxo-2,3-dihydrospiro[indene-1,5′-oxazolidin]-5-yl)dodecanamide]
CBP; Kelly cells, 24 h
  CBP expression levels: neither compound had significant effects on expression levels of CBP
CBP; Kelly, NGP and SIMA cells, 24 h
  CBP detection at 24 h: could still be detected
CBP; Kelly, NGP and SIMA cells, extended treatment
  CBP expression with extended treatment: loss of CBP expression was observed
Kelly NB cell xenografts; NSG mice
  body weight: body weight was maintained over 14 days of treatment
Kelly NB cell xenografts; log-rank p<0.0001 versus vehicle
  survival: prolongation of survival; also recorded: prolongs survival
Kelly NB cell xenografts; p<0.05
  xenograft tumor growth: suppression of xenograft tumor growth by day 3 of treatment
BE2C-CRBN cells
  growth of BE2C-CRBN cells: suppressed
